Measurements: patent US20060069132A1, “Azolecarboxamide herbicides” (priority 2004, published 2006)

How the values were obtained:
tropical spiderwort = assay: Test E pre-/postemergence herbicide test; assay type: in vivo, Commelina benghalensis
Outline: (§1)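 In this greenhouse assay, compounds in a solvent vehicle containing surfactant were applied pre- and postemergence, the latter to plants 2 to 18 cm high. Control was judged by eye after 12 to 14 days on a 0 to 100 scale.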

mustard = assay: Test E pre-/postemergence herbicide test; assay type: in vivo, Brassica nigra
Outline: as §1

Russian thistle = assay: Test E pre-/postemergence herbicide test; assay type: in vivo, Salsola kali
Outline: as §1

late watergrass = assay: Test D flooded paddy test; assay type: in vivo, Echinochloa oryzicola; conditions: 21 days, scale 0 to 100
From the text: Three plastic pots (ca. 16-cm diameter) per rate were partially filled with sterilized Tama silt loam soil comprising a 35:50:15 ratio of sand, silt and clay and 2.6% organic matter. Separate plantings for each of the three pots were as follows. Seeds from the U.S. of ducksalad (Heteranthera limosa (Sw.) Willd.), smallflower umbrella sedge (Cyperus difformis L.) and purple redstem (Ammannia coccinea Rottb.), were planted into one 16-cm pot for each rate. Seeds from the U.S. of rice flatsedge (Cyperus iria L.), bearded sprangletop (Leptochloa fascicularis (Lam.) Gray), one stand of 9 or 10 water seeded rice seedlings (Oryza sativa L. cv. ‘Japonica—M202’), and one stand of 6 transplanted rice seedlings (Oryza sativa L. cv. ‘Japonica—M202’) were planted into one 16-cm pot for each rate. Seeds from the U.S. of barnyardgrass (Echinochloa crus-galli (L.) Beauv.), late watergrass (Echinochloa oryzicola Vasinger), early watergrass (Echinochloa oryzoides (Ard.) Fritsch) and junglerice (Echinochloa colona (L.) Link) were planted into one 16-cm pot for each rate. Plantings were sequential so that crop and weed species were at the 2.0 to 2.5-leaf stage at time of treatment.
Potted plants were grown in a greenhouse with day/night temperature settings of 29.5/26.7° C., and supplemental balanced lighting was provided to maintain a 16-hour photoperiod. Test pots were maintained in the greenhouse until test completion.
At time of treatment, test pots were flooded to 3 cm above the soil surface, treated by application of test compounds directly to the paddy water, and then maintained at that water depth for the duration of the test. Effects of treatments on rice and weeds were visually evaluated by comparison to untreated controls after 21 days. Plant response ratings are reported on a 0 to 100 scale; where 0 is no effect and 100 is complete control. A dash (-) response means no test result.

large crabgrass = assay: Test E pre-/postemergence herbicide test; assay type: in vivo, Digitaria sanguinalis
Outline: as §1

Surinam grass = assay: Test E pre-/postemergence herbicide test; assay type: in vivo, Urochloa decumbens
Outline: as §1

[1] = tested on: smallflower umbrella sedge; assay: Test D flooded paddy test; assay type: in vivo, Cyperus difformis; conditions: 21 days, scale 0 to 100
common ragweed = assay: Test E pre-/postemergence herbicide test; assay type: in vivo, Ambrosia elatior
Outline: as §1

bermudagrass = assay: Test E pre-/postemergence herbicide test; assay type: in vivo, Cynodon dactylon
Outline: as §1

guineagrass = assay: Test E pre-/postemergence herbicide test; assay type: in vivo, Panicum maximum
Outline: as §1

ducksalad = assay: Test D flooded paddy test; assay type: in vivo, Heteranthera limosa; conditions: 21 days, scale 0 to 100
[2] = Postemergence, 500 g ai/ha, scale 0 to 100
[3] = Postemergence, 250 g ai/ha, scale 0 to 100
[4] = Preemergence, 62 g ai/ha, scale 0 to 100
[5] = Preemergence, 125 g ai/ha, scale 0 to 100
[6] = Preemergence, 250 g ai/ha, scale 0 (no effect) to 100 (complete control)
[7] = Preemergence, 500 g ai/ha, scale 0 (no effect) to 100 (complete control)
[8] = postemergence, 125 g ai/ha, scale 0 to 100

CCNC(=O)c1ccnc(NC(=O)c2cc(C(C)(C)C)nn2CC)c1 [Compound 152]
Plant response rating, Spiderwort (tropical spiderwort; [2]): 80
Plant response rating, Spiderwort (tropical spiderwort; [3]): 10
Plant response rating, Spiderwort (tropical spiderwort; [4]): 10
Plant response rating, Spiderwort (tropical spiderwort; [5]): 20
Plant response rating, Spiderwort (tropical spiderwort; [6]): 75
Plant response rating, Spiderwort (tropical spiderwort; [7]): 80
Plant response rating, Black Mustard (mustard; [2]): 100
Plant response rating, Black Mustard (mustard; [3]): 100
Plant response rating, Black Mustard (mustard; [4]): 90
Plant response rating, Black Mustard (mustard; [5]): 90
Plant response rating, Black Mustard (mustard; [6]): 95
Plant response rating, Black Mustard (mustard; [7]): 100
Plant response rating, Thistle (Russian thistle; [2]): 80
Plant response rating, Thistle (Russian thistle; [3]): 80
Plant response rating, Thistle (Russian thistle; [4]): 20
Plant response rating, Thistle (Russian thistle; [5]): 20
Plant response rating, Thistle (Russian thistle; [7]): 100
Plant response rating, Watergrass, Late (late watergrass; 8 g ai/ha): 0
Plant response rating, Watergrass, Late (late watergrass; 16 g ai/ha): 0
Plant response rating, Watergrass, Late (late watergrass; 32 g ai/ha): 15
Plant response rating, Watergrass, Late (late watergrass; 64 g ai/ha): 20
Plant response rating, Watergrass, Late (late watergrass; 125 g ai/ha): 40
Plant response rating, Crabgrass, Large (large crabgrass; [2]): 80
Plant response rating, Crabgrass, Large (large crabgrass; [3]): 75
Plant response rating, Crabgrass, Large (large crabgrass; [4]): 40
Plant response rating, Crabgrass, Large (large crabgrass; [5]): 70
Plant response rating, Crabgrass, Large (large crabgrass; [6]): 100
Plant response rating, Crabgrass, Large (large crabgrass; [7]): 100
Plant response rating, Crabgrass, Large (large crabgrass; [8]): 60
Plant response rating, Surinam Grass (Surinam grass; [2]): 80
Plant response rating, Surinam Grass (Surinam grass; [3]): 60
Plant response rating, Surinam Grass (Surinam grass; [4]): 20
Plant response rating, Surinam Grass (Surinam grass; [5]): 50
Plant response rating, Surinam Grass (Surinam grass; [7]): 80
Plant response rating, Surinam Grass (Surinam grass; [8]): 30
Plant response rating, Sedge, Umbrella ([1]; 8 g ai/ha): 0
Plant response rating, Sedge, Umbrella ([1]; 16 g ai/ha): 70
Plant response rating, Sedge, Umbrella ([1]; 32 g ai/ha): 75
Plant response rating, Sedge, Umbrella ([1]; 64 g ai/ha): 85
Plant response rating, Sedge, Umbrella ([1]; 125 g ai/ha): 95
Plant response rating, Ragweed (common ragweed; [2]): 75
Plant response rating, Ragweed (common ragweed; [3]): 60
Plant response rating, Ragweed (common ragweed; [4]): 20
Plant response rating, Ragweed (common ragweed; [5]): 60
Plant response rating, Ragweed (common ragweed; [6]): 80
Plant response rating, Ragweed (common ragweed; [7]): 80
Plant response rating, Ragweed (common ragweed; [8]): 50
Plant response rating, Bermudagrass (bermudagrass; [2]): 75
Plant response rating, Bermudagrass (bermudagrass; [3]): 75
Plant response rating, Bermudagrass (bermudagrass; [4]): 70
Plant response rating, Bermudagrass (bermudagrass; [5]): 90
Plant response rating, Bermudagrass (bermudagrass; [6]): 95
Plant response rating, Bermudagrass (bermudagrass; [7]): 95
Plant response rating, Bermudagrass (bermudagrass; [8]): 40
Plant response rating, Guineagrass (guineagrass; [2]): 80
Plant response rating, Guineagrass (guineagrass; [3]): 70
Plant response rating, Guineagrass (guineagrass; [4]): 20
Plant response rating, Guineagrass (guineagrass; [5]): 50
Plant response rating, Guineagrass (guineagrass; [6]): 80
Plant response rating, Guineagrass (guineagrass; [7]): 100
Plant response rating, Ducksalad (ducksalad; 8 g ai/ha): 0
Plant response rating, Ducksalad (ducksalad; 16 g ai/ha): 70
Plant response rating, Ducksalad (ducksalad; 32 g ai/ha): 75
Plant response rating, Ducksalad (ducksalad; 64 g ai/ha): 80
Plant response rating, Ducksalad (ducksalad; 125 g ai/ha): 90
